From the supplement of paper PMC10702517
Where a name gives a salt, the structure may show the parent alone. ± gives the standard deviation.

Assay: chemical recovery from spiked human plasma; higher = better extraction
Settings: pooled human plasma
[1] = extraction method: SPE only (HLB 96-well)
[2] = extraction method: PES+SPE (3 d PDMS equilibration then HLB SPE)
[3] = extraction method: solvent precipitation (ACN + hexane)
[4] = extraction method: SPE only (HLB 96-well), PES comparison experiment

| chemical recovery [1] | chemical recovery [2] | chemical recovery [3] | chemical recovery [4] | Compound |
| --- | --- | --- | --- | --- |
| 28.7 ± 6.6% |  |  |  | CCCCOC(=O)CCCCCCCCC(=O)OCCCC [Dibutyl-sebacate] |
| 37.9 ± 3.7% | 42.3 ± 2.6% |  |  | COc1c(Cl)ccc(Cl)c1C(=O)O [Dicamba] |
| 27.6 ± 3.1% | 37.7 ± 3.3% | 71.8 ± 3.4% | 37.1 ± 6.9% | O=C(CC(C(=O)OC1CCCCC1)S(=O)(=O)O)OC1CCCCC1 (configuration not stated) [Dicyclohexyl sulfosuccinate] |
| 44.3 ± 2.2% | 57.7 ± 5.7% |  |  | O=C(CC(C(=O)OC1CCCCC1)S(=O)(=O)O)OC1CCCCC1 (configuration not stated) [Dicyclohexyl-sulfosuccinate] |
| 56.9 ± 0.74% | 54.4 ± 4.7% | 78.6 ± 1.8% |  | O=C(NC1CCCCC1)NC1CCCCC1 [Dicyclohexylurea] |
| 11.5 ± 3.1% |  |  |  | COCCOCCOC [Diglyme] |
| 3.54 ± 6.1% |  |  |  | CC(=O)CCC1C(C)=CCCC1(C)C (stereo not drawn) [Dihydro-alpha-ionone] |
| 12.9 ± 3.1% |  | 103 ± 14% |  | CC(C)CCCCOC(=O)c1ccccc1C(=O)OCCCCC(C)C [Diisoheptyl-phthalate] |
|  |  | 64.5 ± 14% |  | COC(=O)c1ccc(C(=O)OC)cc1 [Dimethyl-terephthalate] |
| 39.3 ± 2.3% | 6.91 ± 1.9% | 73.8 ± 2% |  | Cc1c(N(C)C)c(=O)n(-c2ccccc2)n1C [Dimethylaminophenazone] |
| 24.1 ± 2.6% | 0.267 ± 0.076% | 58.5 ± 5.4% |  | CC(C1=C(CCN(C)C)Cc2ccccc21)c1ccccn1 (configuration not stated) [Dimetindene] |
| 26.5 ± 1.6% |  |  |  | CCCCC(CC)COC(=O)CC(C(=O)OCC(CC)CCCC)S(=O)(=O)O (configuration not stated) [Dioctylsulfosuccinate] |
| 39.7 ± 11% |  | 80.2 ± 8.3% |  | CCN(CCC#N)c1ccc(N=Nc2c(Br)cc([N+](=O)[O-])cc2Br)cc1 [Disperse-Orange-61] |
| 53.4 ± 0.92% | 47.4 ± 4.3% | 66.7 ± 1.7% |  | O=C1CCCCCCCCCCCN1 [Dodecane-12-lactam] |
| 33.8 ± 0.79% |  |  |  | CCCCCCCCCCCCOS(=O)(=O)O [Dodecyl sulfate] |
| 15.4 ± 9.1% |  | 54.1 ± 4.6% |  | Cc1ccc(O)c(-n2nc3ccccc3n2)c1 [Drometrizole] |
| 34.8 ± 2.4% | 1.6 ± 0.45% | 59.7 ± 5.1% |  | CNCC[C@H](Oc1cccc2ccccc12)c1cccs1 [Duloxetine] |
| 14.2 ± 4.3% |  | 71.1 ± 4.1% |  | Nc1nc(=O)n([C@@H]2CS[C@H](CO)O2)cc1F [Emtricitabine] |

| chemical recovery [1] | chemical recovery [2] | chemical recovery [3] | chemical recovery [4] | Compound |
| --- | --- | --- | --- | --- |
| 7.89 ± 2.1% |  | 15.3 ± 1.4% |  | O=C1C2CC3C1C1(Cl)C(Cl)C4(Cl)C2C3C1(Cl)C4(Cl)Cl (configuration not stated) [Endrin ketone] |
| 44.3 ± 4.6% |  |  |  | CCCCc1ncc(/C=C(\Cc2cccs2)C(=O)O)n1Cc1ccc(C(=O)O)cc1 [Eprosartan] |
| 45.3 ± 3% | 56.1 ± 4% | 66.3 ± 2.4% |  | CCOC(=O)c1ccc(O)cc1 [Ethylparaben] |
| 36.7 ± 2.9% | 35.4 ± 4.9% | 49.9 ± 9.2% |  | CCOC(=O)C(C#N)=C(c1ccccc1)c1ccccc1 [Etocrylene] |
| 44.8 ± 1.8% | 42.8 ± 4.4% | 50.3 ± 6.1% |  | C=CCc1ccc(O)c(OC)c1 [Eugenol] |
| 42.9 ± 4.1% | 41.2 ± 4.4% | 67.5 ± 3.3% |  | CC(Cc1ccc(C(C)(C)C(=O)O)cc1)CN1C[C@@H](C)O[C@@H](C)C1 (some centres not stated) [Fenpropimorph-acid] |
| 46.9 ± 2.6% | 49.2 ± 5% | 74.6 ± 2.4% | 49.4 ± 5.9% | CN(C)C(=O)Nc1ccccc1 [Fenuron] |
|  |  |  | 46.7 ± 4.8% | CC(=O)OCC(=O)[C@@]1(O)CC[C@H]2[C@@H]3CCC4=CC(=O)CC[C@]4(C)[C@@]3(F)[C@@H](O)C[C@@]21C [Fludrocortisone-21-acetate] |
| 44.9 ± 11% | 58 ± 5.7% | 51.1 ± 1.4% |  | O=C(O)c1ccccc1Nc1cccc(C(F)(F)F)c1 [Flufenamic-acid] |
|  |  |  | 46.1 ± 5.2% | CC1(C)O[C@@H]2C[C@H]3[C@@H]4C[C@H](F)C5=CC(=O)C=C[C@]5(C)[C@@]4(F)[C@@H](O)C[C@]3(C)[C@]2(C(=O)CO)O1 [Fluocinolone acetonide] |
| 58.1 ± 3.7% | 65.8 ± 11% | 79.1 ± 2.3% |  | O=C(NCc1ncc(C(F)(F)F)cc1Cl)c1c(Cl)cccc1Cl [Fluopicolide] |
|  |  |  | 11 ± 2.6% | c1ccc2c(c1)Cc1ccccc1-2 [Fluorene] |
| 0.938 ± 0.39% |  |  |  | CC(C)(C)c1ccc2oc(-c3ccc(-c4nc5cc(C(C)(C)C)ccc5o4)s3)nc2c1 [Fluorescent-Brightener-184] |
|  |  | 51.7 ± 2.5% |  | OCCN1CCN(CCC=C2c3ccccc3Sc3ccc(C(F)(F)F)cc32)CC1 [Flupentixol] |
| 65 ± 3% | 69.6 ± 10% | 79.9 ± 1.2% |  | Cn1cc(C(=O)Nc2ccccc2-c2cc(F)c(F)c(F)c2)c(C(F)F)n1 [Fluxapyroxad] |
| 13.7 ± 2.7% | 39.1 ± 9.8% | 99.6 ± 18% |  | CC1COCc2cc3c(cc21)C(C)(C)C(C)C3(C)C (configuration not stated) [Galaxolide] |
| 16.6 ± 2.5% | 14.5 ± 4.5% | 0.719 ± 0.66% |  | CC1(C)[C@@H](O[C@H]2O[C@H](C(=O)O)[C@@H](O)[C@H](O)[C@H]2O[C@@H]2O[C@H](C(=O)O)[C@@H](O)[C@H](O)[C@H]2O)CC[C@]2(C)[C@H]3C(=O)C=C4[C@@H]5C[C@@](C)(C(=O)O)CC[C@]5(C)CC[C@@]4(C)[C@]3(C)CC[C@@H]12 [Glycyrrhizin] |
| 44 ± 3.3% | 43.1 ± 2.6% | 57.9 ± 5% |  | N=C(N)NC(=O)Cc1c(Cl)cccc1Cl [Guanfacine] |

| Compound | chemical recovery [1] | chemical recovery [2] | chemical recovery [3] | chemical recovery [4] |
| --- | --- | --- | --- | --- |
| c1ccc2c(c1)sc1ccccc12 [Dibenzothiophene] | 16.2 ± 6.1% |  |  |  |
| Oc1cc(Cl)ccc1Oc1ccc(Cl)cc1 [Diclosan] | 32.1 ± 2.6% |  | 41.7 ± 3.2% |  |
| COP(=O)(OC)O/C(C)=C/C(=O)N(C)C [Dicrotophos] | 37.3 ± 0.93% | 38.5 ± 3.5% | 59.3 ± 8.9% |  |
| C1CCC(NC2CCCCC2)CC1 [Dicyclohexylamine] | 35.2 ± 2.1% |  | 53.8 ± 6.1% |  |
| CCCCCCCCCC[N+](C)(C)CCCCCCCCCC [Didecyldimethylammonium] | 67.1 ± 21% |  |  |  |
| COCCOCCO [Diethyleneglycolmonomethylether] | 1.78 ± 2.6% |  |  |  |
| O=C(Nc1ccc(F)cc1F)c1cccnc1Oc1cccc(C(F)(F)F)c1 [Diflufenican] | 31 ± 3.5% |  | 52.3 ± 4.8% | 35.6 ± 6.6% |
| CCCCCCOC(=O)c1ccccc1C(=O)OCCCCCC [Dihexyl-phthalate] | 20.6 ± 3.2% |  |  |  |
| CC(C)CCCCCCOC(=O)c1ccccc1C(=O)OCCCCCCC(C)C [Diisononyl-phthalate] | 23.4 ± 7.7% |  |  |  |
| COC(=O)c1ccccc1C(=O)OC [Dimethylphthalate] |  | 46 ± 3.9% | 67.3 ± 4.1% |  |
| CN/C(=N/CC1CCOC1)N[N+](=O)[O-] (configuration not stated) [Dinotefuran] | 27.4 ± 2.9% |  | 76.3 ± 3.7% |  |
| CC(C)(C)c1cc([N+](=O)[O-])cc([N+](=O)[O-])c1O [Dinoterb] |  | 48.5 ± 5% |  |  |
| CCOP(=S)(OCC)SCCSCC [Disulfoton] | 4.52 ± 2% |  |  |  |
| CC[C@H](C)[C@H]1O[C@]2(C=C[C@@H]1C)C[C@@H]1C[C@@H](C/C=C(\C)[C@@H](O[C@H]3C[C@H](OC)[C@@H](O[C@H]4C[C@H](OC)[C@@H](NC)[C@H](C)O4)[C@H](C)O3)[C@@H](C)/C=C/C=C3\CO[C@@H]4[C@H](O)C(C)=C[C@@H](C(=O)O1)[C@]34O)O2 [Emamectin-B1a] | 17.2 ± 7.2% |  |  |  |
| CC(C)[C@H](C(=O)O[C@H](C#N)c1cccc(Oc2ccccc2)c1)c1ccc(Cl)cc1 [Esfenvalerate] |  |  | 118 ± 16% |  |
| CCOc1ccc(C(C)(C)COCc2cccc(Oc3ccccc3)c2)cc1 [Etofenprox] | 4.05 ± 1.4% |  | 5.02 ± 0.29% |  |

| Compound | chemical recovery [1] | chemical recovery [2] | chemical recovery [3] | chemical recovery [4] |
| --- | --- | --- | --- | --- |
| CSC1=N[C@@](C)(c2ccccc2)C(=O)N1Nc1ccccc1 [Fenamidone] | 57.8 ± 2.2% | 60.6 ± 12% | 79.4 ± 2.9% |  |
| CC1(C(=O)Nc2ccc(O)c(Cl)c2Cl)CCCCC1 [Fenhexamid] |  |  | 66.2 ± 1.5% |  |
| CC(Oc1ccc(Oc2nc3ccc(Cl)cc3o2)cc1)C(=O)O (configuration not stated) [Fenoxaprop-P] | 26.7 ± 2.6% | 42.2 ± 5% |  |  |
| COP(=S)(OC)Oc1ccc(SC)c(C)c1 [Fenthion] | 59.7 ± 2.1% | 1.29 ± 0.38% |  | 47 ± 8.3% |
| N#CCNC(=O)c1cnccc1C(F)(F)F [Flonicamid] | 46.9 ± 1.9% | 53.1 ± 3.7% | 73.8 ± 3.3% |  |
| Cc1cc(C(F)(C(F)(F)F)C(F)(F)F)ccc1NC(=O)c1cccc(I)c1C(=O)NC(C)(C)CS(C)(=O)=O [Flubendiamide] | 25.7 ± 6.4% |  | 53.1 ± 4.4% |  |
| N#Cc1c[nH]cc1-c1cccc2c1OC(F)(F)O2 [Fludioxonil] | 40.1 ± 3.5% | 67.2 ± 4.7% | 51.4 ± 2.9% |  |
| O=C(NC(=O)c1c(F)cccc1F)Nc1ccc(Oc2ccc(C(F)(F)F)cc2Cl)cc1F [Flufenoxuron] | 25.7 ± 5.2% |  |  | 24 ± 6.8% |
| C#CCN1C(=O)COc2cc(F)c(N3C(=O)C4=C(CCCC4)C3=O)cc21 [Flumioxazin] | 40.9 ± 0.44% | 47.2 ± 4.8% | 5.96 ± 5.2% | 38.5 ± 7.6% |
| O=C(NCCc1ncc(C(F)(F)F)cc1Cl)c1ccccc1C(F)(F)F [Fluopyram] |  |  | 67.8 ± 2.1% |  |
| O=C1C=C(N(Cc2ccc(Cl)nc2)CC(F)F)CO1 [Flupyradifurone] | 39.3 ± 3.1% | 43.9 ± 3.3% | 76.9 ± 2.6% |  |
| CC(C)Oc1cccc(NC(=O)c2ccccc2C(F)(F)F)c1 [Flutolanil] | 38.9 ± 0.5% | 53.5 ± 4.5% | 60.8 ± 4.7% |  |
| OC(Cn1cncn1)(c1ccc(F)cc1)c1ccccc1F (configuration not stated) [Flutriafol] | 41.9 ± 3.3% | 43.2 ± 5.4% | 78.9 ± 4% |  |
| COc1cc(OC)nc(NC(=O)NS(=O)(=O)c2cc(NC=O)ccc2C(=O)N(C)C)n1 [Foramsulfuron] |  |  | 69 ± 4.2% |  |
| CNC(=O)Oc1cccc(/N=C/N(C)C)c1 [Formetanate] | 8.98 ± 3.5% |  | 2.27 ± 3.9% |  |
| O=C(O)C(F)(OC(F)(F)C(F)(F)C(F)(F)F)C(F)(F)F (configuration not stated) [HFPO-DA] | 30.7 ± 3% |  | 67.4 ± 3.1% |  |
